Tests used:
[1] = test system: reactive oxygen species (ROS) in M. bovis BCG; format: cell-based, Mycobacterium bovis BCG; conditions: for dose-dependent ROS production: 0.25×–2× MIC90, 90 min; for ROS levels at higher dose: 2× MIC90
[2] = In vivo pharmacokinetics in mice; conditions: mouse; for bioavailability: po, 50 mg/kg
[3] = test system: M. bovis BCG cell membrane; conditions: for membrane permeabilizing effect: 4× MIC90, after 8 h of exposure; for time at which permeabilization was observed: 4× MIC90, attributed to onset of cell death
pfurA promoter = format: cell-based, Mycobacterium bovis BCG; conditions: 0.5× to 2× MIC90, 24 h
M. bovis BCG [4] = format: cell-based, Mycobacterium bovis BCG; conditions: N-acetylcysteine, TEMPO, thiourea
M. bovis BCG [5] = format: cell-based, Mycobacterium bovis BCG
[6] = test system: M. smegmatis mc^2155 IMVs; assay: Oxygen consumption and hydrogen peroxide production by IMVs; format: biochemical
piniBAC promoter = format: cell-based, Mycobacterium bovis BCG; conditions: 0.4–25 μM, 24 h
[7] = molecular target: NDH2 in IMVs of M. smegmatis mc^2155 (Mycolicibacterium smegmatis, UniProt A0QYD6); assay: NADH oxidation in inverted membrane vesicles; format: biochemical; conditions: KCN, 20 mM
M. smegmatis IMVs = assay: Transmembrane pH gradient dissipation in IMVs; format: biochemical; conditions: 1 and 2 μM
M. bovis BCG [8] = format: cell-based, Mycobacterium bovis BCG; conditions: 32 at its MIC90 + vitamin C 2.5 mM, 5 days
[9] = test system: nutrient-starved M. tuberculosis H37Rv; assay: Loebel model, nutrient-starved nonreplicating cultures; format: cell-based, Mycobacterium tuberculosis H37Rv; conditions: 40× MIC90 (64 μM); 7 days
[10] = Metabolic stability in rat microsomes; format: in vitro ADME
M. bovis BCG [11] = format: cell-based, Mycobacterium bovis BCG; remark: listed apart in the source
[12] = test system: Vero (African Green Monkey kidney epithelial cells); assay: Cytotoxicity against mammalian Vero cells; format: cell-based; conditions: IC50 Vero/MIC50 Mtb
mini-Ames test = format: cell-based
[13] = test system: M. bovis BCG cell membrane; format: cell-based, Mycobacterium bovis BCG; conditions: 4× MIC90 (1.2 μM); for membrane depolarizing effect: after 8 h of exposure; for time at which red/green fluorescence ratio significantly decreased: coincided with onset of cell death
[14] = test system: M. bovis BCG katG mutant strain; format: cell-based, Mycobacterium bovis BCG

Chain of NDH2 in IMVs of M. smegmatis mc^2155 (A0QYD6 1-457): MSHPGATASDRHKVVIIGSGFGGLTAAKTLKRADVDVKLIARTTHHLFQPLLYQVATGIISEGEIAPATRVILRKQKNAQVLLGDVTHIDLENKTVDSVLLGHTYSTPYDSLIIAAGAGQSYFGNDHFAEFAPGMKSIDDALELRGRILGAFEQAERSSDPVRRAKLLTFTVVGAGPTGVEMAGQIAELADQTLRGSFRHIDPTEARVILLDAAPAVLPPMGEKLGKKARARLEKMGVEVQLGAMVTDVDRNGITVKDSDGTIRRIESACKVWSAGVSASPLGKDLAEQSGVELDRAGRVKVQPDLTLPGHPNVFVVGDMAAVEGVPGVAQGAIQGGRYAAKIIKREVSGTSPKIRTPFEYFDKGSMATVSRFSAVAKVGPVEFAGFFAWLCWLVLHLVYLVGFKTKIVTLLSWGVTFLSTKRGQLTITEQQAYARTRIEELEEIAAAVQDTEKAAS

For `CCCCCCCCn1c2c([n+](CCCC)c1C)C(=O)c1ccccc1C2=O.[Br-]` [compound 32], the “dose-dependent ROS production” value [1] was “duly observed”, the Vd [2] was 27 to 35 L/kg and the clearance [2] was 38 to 55 mL/min/kg. The half-life [2] was 7 to 10 h, the bioavailability [2] was 1 to 2% and the membrane permeabilizing effect [3] was “Neither compound induced depolarizing or permeabilizing effects”. The “time at which permeabilization was observed” value [3] was 24 h, the “pfurA activation (fluorescence)” value (pfurA promoter) was “induced dose-dependent increases in fluorescence” and the “effect of antioxidants on growth inhibitory MIC BCG” value (M. bovis BCG [4]) was “did not diminish the growth inhibitory potency”. For the same compound, the time-kill outcome (M. bovis BCG [5]; 8× MIC90, 28 days) was “CFUs were not detected from day 21 onward”, the “oxygen consumption in IMVs energized by NADH compared to malate” value [6] was ~ 1.8 fold and the “piniBAC promoter activity (fluorescence)” value (piniBAC promoter) was “no increase in fluorescence”. For the same compound, the “stimulation of NADH oxidation with cyanide” value [7] was “retained the ability to stimulate NADH oxidation”, the “protonophore activity (pH gradient dissipation)” value (M. smegmatis IMVs) was “only moderate rates of pH gradient dissipation” and the “Log10 CFU counts with vitamin C added” value (M. bovis BCG [8]) was “nearly halved”. For the same compound, the “bactericidal effect, Loebel model” value [9] was “substantially reduced CFUs to levels equivalent to or below the detection limit”, the half-life [10] was 0.333 to 0.383 h and the pMIC90 (M. bovis BCG [11]) was > 0.5. The “SI (selectivity index)” value [12] was > 25, the “mutagenicity, mini-Ames test” value (mini-Ames test) was “not mutagenic” and the membrane depolarizing effect [13] was “Neither compound induced depolarizing or permeabilizing effects”. For the same compound, the “time at which red/green fluorescence ratio significantly decreased” value [13] was 48 h.
In the case of `CCCCCC[n+]1c2c(n(CC(C)C)c1C)C(=O)c1ccccc1C2=O.[Br-]` [compound 34], the pMIC90 (M. bovis BCG [11]) is reported as > 0.5.
In the case of `CCCCCCCC[n+]1c2c(n(CC(C)C)c1C)C(=O)c1ccccc1C2=O.[Br-]` [compound 35], the pMIC90 (M. bovis BCG [11]) is reported as > 0.5.
In the case of `CCCCCCCn1c2c([n+](CCCCC)c1C)C(=O)c1ccccc1C2=O.[Br-]` [compound 48], the “dose-dependent ROS production” value [1] is reported as “duly observed”, the membrane permeabilizing effect [3] is reported as “Neither compound induced depolarizing or permeabilizing effects” and the “time at which permeabilization was observed” value [3] is reported as 48 h. For the same compound, the “pfurA activation (fluorescence)” value (pfurA promoter) was “induced dose-dependent increases in fluorescence”, the “piniBAC promoter activity (fluorescence)” value (piniBAC promoter) was “no increase in fluorescence” and the “bactericidal effect, Loebel model” value [9] was “substantially reduced CFUs to levels equivalent to or below the detection limit”. For the same compound, the pMIC90 (M. bovis BCG [11]) was > 0.5, the “SI (selectivity index)” value [12] was > 25 and the membrane depolarizing effect [13] was “Neither compound induced depolarizing or permeabilizing effects”. The “time at which red/green fluorescence ratio significantly decreased” value [13] was 24 h.
With `CCCCCCn1c2c([n+](CCCCCC)c1C)C(=O)c1ccccc1C2=O.[Br-]` [compound 50] the pMIC90 (M. bovis BCG [11]) was > 0.5.
With `CCCCn1c2c([n+](C3CCC4(CCCCC4)CC3)c1C)C(=O)c1ccccc1C2=O.[Br-]` [compound 61] the “dose-dependent ROS production” value [1] was “duly observed”, the Vd [2] was 27 to 35 L/kg and the clearance [2] was 38 to 55 mL/min/kg. For the same compound, the half-life [2] was 7 to 10 h, the bioavailability [2] was 1 to 2% and the “pfurA activation (fluorescence)” value (pfurA promoter) was “induced dose-dependent increases in fluorescence”. The “piniBAC promoter activity (fluorescence)” value (piniBAC promoter) was “no increase in fluorescence”, the half-life [10] was 0.333 to 0.383 h and the “mutagenicity, mini-Ames test” value (mini-Ames test) was “not mutagenic”. For the same compound, the “activity against katG mutant strain” value [14] was “a shift to lower MICs was not evident”.
For `CCCCCCn1c(C)nc2c1C(=O)c1ccccc1C2=O` [compound 72], the “ROS levels at higher dose” value [1] was “increased ROS levels but not to the levels induced by the actives at comparable doses” and the “pfurA activation (fluorescence)” value (pfurA promoter) was “less evident”.
For `CCCCCCCCn1c(C)nc2c1C(=O)c1ccccc1C2=O` [compound 73], the “ROS levels at higher dose” value [1] was “increased ROS levels but not to the levels induced by the actives at comparable doses” and the “pfurA activation (fluorescence)” value (pfurA promoter) was “less evident”.
With `NNC(=O)c1ccncc1` [isoniazid, reference compound] the “time-kill outcome, colony growth by Day 28” value (M. bovis BCG [5]; 4× MIC90 (12.8 μM)) was “comparable to the drug-free cultures”, the “piniBAC promoter activity (fluorescence)” value (piniBAC promoter) was “duly increased piniBAC promoter activity” and the “activity against katG mutant strain” value [14] was “inactive against the mutant strain”.

From publication PMC8595825 (Journal of medicinal chemistry, 2021)
